From ChEMBL document CHEMBL1250451, “Mechanistic insights into a Ca2+-dependent family of alpha-mannosidases in a human gut symbiont” (Nat Chem Biol, 2010)
Calls of active or inactive are those of the source. The calls are words filed in the database; no cut-off is given here.

Key:
Format in all cases: protein assay
[1] = molecular target: T1, Alpha-1,2-mannosidase (BT_2111) (Bacteroides thetaiotaomicron) (UniProt Q8A5X5); assay: Activity of Bacteroides thetaiotaomicron GH92 alpha-mannosidase GH92 alpha-mannosidase 2111 assessed as mannose release at 1 mM after 16 hrs by HPLC relative to untreated control after 16 hrs by HPLC
T1 sequence (whole entry): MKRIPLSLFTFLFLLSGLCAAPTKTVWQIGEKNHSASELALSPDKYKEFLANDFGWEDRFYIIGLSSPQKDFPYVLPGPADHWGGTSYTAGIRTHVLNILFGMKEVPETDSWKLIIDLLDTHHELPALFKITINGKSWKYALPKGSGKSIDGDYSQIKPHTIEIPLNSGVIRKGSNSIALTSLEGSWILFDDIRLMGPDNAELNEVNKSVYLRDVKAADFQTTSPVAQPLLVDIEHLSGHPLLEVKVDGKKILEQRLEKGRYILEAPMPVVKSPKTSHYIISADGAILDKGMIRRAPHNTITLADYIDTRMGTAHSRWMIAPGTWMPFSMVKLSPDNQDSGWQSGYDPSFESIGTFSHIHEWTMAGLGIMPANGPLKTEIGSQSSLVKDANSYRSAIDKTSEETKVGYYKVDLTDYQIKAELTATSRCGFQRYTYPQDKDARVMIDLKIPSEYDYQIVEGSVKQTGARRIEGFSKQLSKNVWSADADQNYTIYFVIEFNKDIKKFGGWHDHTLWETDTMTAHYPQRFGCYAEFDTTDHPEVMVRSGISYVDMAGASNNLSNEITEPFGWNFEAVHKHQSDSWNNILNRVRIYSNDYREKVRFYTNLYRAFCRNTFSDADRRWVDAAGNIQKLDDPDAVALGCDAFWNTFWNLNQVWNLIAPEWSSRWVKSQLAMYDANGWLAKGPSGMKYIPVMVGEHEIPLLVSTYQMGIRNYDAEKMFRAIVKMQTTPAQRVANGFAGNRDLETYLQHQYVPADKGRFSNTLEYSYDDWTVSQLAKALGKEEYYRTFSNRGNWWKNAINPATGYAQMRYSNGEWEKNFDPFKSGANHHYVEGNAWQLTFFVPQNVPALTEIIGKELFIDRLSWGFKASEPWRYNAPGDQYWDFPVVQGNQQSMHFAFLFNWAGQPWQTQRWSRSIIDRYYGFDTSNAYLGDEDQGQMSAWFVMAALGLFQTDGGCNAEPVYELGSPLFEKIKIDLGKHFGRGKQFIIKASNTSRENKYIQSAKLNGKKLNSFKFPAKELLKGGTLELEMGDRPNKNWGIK

[2] = molecular target: T2, Alpha-1,2-mannosidase (BT_3990) (Bacteroides thetaiotaomicron) (UniProt Q8A0N1); assay: Activity of Bacteroides thetaiotaomicron GH92 alpha-mannosidase 3990 assessed as recovery of enzyme activity at 1 mM in presence of 7 mM Mg(2+) ions and in presence of 5 mM EGTA in 100 mM pH 7 MOPS buffer relative to enzyme activity in presence of calcium
T2 sequence (whole entry): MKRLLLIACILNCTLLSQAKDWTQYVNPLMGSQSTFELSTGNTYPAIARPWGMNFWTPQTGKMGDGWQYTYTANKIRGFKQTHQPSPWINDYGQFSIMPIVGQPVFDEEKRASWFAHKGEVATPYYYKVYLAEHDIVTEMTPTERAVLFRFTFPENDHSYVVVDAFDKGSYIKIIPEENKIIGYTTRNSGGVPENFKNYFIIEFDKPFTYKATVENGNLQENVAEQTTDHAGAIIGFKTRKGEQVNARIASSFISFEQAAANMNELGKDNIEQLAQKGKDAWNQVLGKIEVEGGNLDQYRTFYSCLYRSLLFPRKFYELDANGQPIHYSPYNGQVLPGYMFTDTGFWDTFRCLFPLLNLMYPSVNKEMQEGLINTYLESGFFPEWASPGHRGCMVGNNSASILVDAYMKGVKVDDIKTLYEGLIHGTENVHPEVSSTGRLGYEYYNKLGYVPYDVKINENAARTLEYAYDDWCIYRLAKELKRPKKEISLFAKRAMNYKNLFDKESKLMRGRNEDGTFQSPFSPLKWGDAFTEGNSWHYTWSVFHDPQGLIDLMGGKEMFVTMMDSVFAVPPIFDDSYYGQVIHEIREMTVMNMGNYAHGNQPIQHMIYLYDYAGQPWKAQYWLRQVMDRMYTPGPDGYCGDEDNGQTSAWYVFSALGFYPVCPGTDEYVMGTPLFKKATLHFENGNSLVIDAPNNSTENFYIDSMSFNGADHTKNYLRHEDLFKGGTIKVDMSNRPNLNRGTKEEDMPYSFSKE

[3] = molecular target: T3, Alpha-1,2-mannosidase (BT_2199) (Bacteroides thetaiotaomicron) (UniProt Q8A5N9); assay: Activity of Bacteroides thetaiotaomicron GH92 alpha-mannosidase 2199 assessed as recovery of enzyme activity at 1 mM in presence of 7 mM Sc(3+) ions and in presence of 5 mM EDTA in 100 mM pH 7 MOPS buffer relative to enzyme activity in presence of calcium
T3 sequence (whole entry): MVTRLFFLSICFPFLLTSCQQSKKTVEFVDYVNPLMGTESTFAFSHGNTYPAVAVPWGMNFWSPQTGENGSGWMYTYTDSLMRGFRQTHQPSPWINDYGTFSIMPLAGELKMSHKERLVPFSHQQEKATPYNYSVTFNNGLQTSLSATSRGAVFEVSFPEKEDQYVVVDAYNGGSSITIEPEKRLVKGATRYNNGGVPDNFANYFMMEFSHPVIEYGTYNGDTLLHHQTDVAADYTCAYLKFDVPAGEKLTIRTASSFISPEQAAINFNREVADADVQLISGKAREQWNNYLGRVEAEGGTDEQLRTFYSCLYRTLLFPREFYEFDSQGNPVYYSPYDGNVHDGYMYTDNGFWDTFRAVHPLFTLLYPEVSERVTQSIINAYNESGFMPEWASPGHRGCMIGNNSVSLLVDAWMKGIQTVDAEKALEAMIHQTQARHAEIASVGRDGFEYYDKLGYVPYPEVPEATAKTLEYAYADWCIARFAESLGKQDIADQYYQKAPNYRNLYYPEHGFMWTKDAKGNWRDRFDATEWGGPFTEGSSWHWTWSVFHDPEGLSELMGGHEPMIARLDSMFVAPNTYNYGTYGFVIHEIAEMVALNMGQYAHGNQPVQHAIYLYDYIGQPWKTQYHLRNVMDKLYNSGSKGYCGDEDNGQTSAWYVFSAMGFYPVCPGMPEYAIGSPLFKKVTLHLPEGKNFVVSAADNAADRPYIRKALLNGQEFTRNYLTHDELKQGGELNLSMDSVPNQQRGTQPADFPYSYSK

[4] = molecular target: T2, Alpha-1,2-mannosidase (BT_3990) (Bacteroides thetaiotaomicron); assay: Activity of Bacteroides thetaiotaomicron GH92 alpha-mannosidase 3990 assessed as recovery of enzyme activity at 1 mM in presence of 7 mM Zn(2+) ions and in presence of 5 mM EDTA in 100 mM pH 7 MOPS buffer relative to enzyme activity in presence of calcium

| Activity [1] | Activity [2] [%] | Activity [3] [%] | Activity [4] [%] | SMILES |
| --- | --- | --- | --- | --- |
| inactive | – | – | – | OC[C@H]1O[C@H](O[C@H]2[C@@H](O)[C@H](O)[C@@H](CO)O[C@@H]2O)[C@@H](O)[C@@H](O)[C@@H]1O |
| inactive | – | – | – | OC[C@H]1O[C@H](OC[C@H]2O[C@H](O)[C@@H](O)[C@@H](O)[C@@H]2O)[C@@H](O)[C@@H](O)[C@@H]1O |
| inactive | – | – | – | OC[C@H]1O[C@H](O[C@@H]2[C@H](O)[C@@H](O)O[C@H](CO)[C@H]2O)[C@@H](O)[C@@H](O)[C@@H]1O |
| inactive | – | – | – | OC[C@H]1O[C@H](O[C@H]2[C@H](O)[C@H](O)[C@@H](O)O[C@@H]2CO)[C@@H](O)[C@@H](O)[C@@H]1O |
| – | 0 | 0 | 0 | O=[N+]([O-])c1ccc(O[C@H]2O[C@H](CO)[C@@H](O)[C@H](O)[C@@H]2O)cc1 |
